24 compounds from ChEMBL document CHEMBL4706643 (J Med Chem, 2021) can be followed below.

pIC50: −log10 of the molar value.

Usually pIC50 stands for the IC50 on a negative log10 scale, so that one unit is a factor of ten.

The test system of this experiment is Hepatitis B virus. Nature of the experiment: Antiviral activity against HBV infected in human HepG2-NTCP cells assessed as reduction in HBeAg secretion cells inoculated with virus for 4 hrs at room temperature and 37 degree C for 24 hrs followed inoculum changed with PMM medium for every 2 days until day 5 post infection by ELISA. The format is functional, organism-based. A general note: ELISA stands for enzyme-linked immunosorbent assay.
With `CC[C@@H]1NC(=O)[C@H]([C@@H]2O[C@@H](Oc3cc(OC)cc(OC)c3)C[C@H]2C)N(C)C(=O)[C@H](C(C)C)N(C)C(=O)[C@H](CC(C)C)N(C)C(=O)[C@H](CC(C)C)N(C)C(=O)[C@@H](C)NC(=O)[C@H](C)NC(=O)[C@H](CC(C)C)N(C)C(=O)[C@H](C(C)C)NC(=O)[C@H](CC(C)C)N(C)C(=O)CN(C)C1=O`, the pIC50 is 6.16. Next, `CC[C@@H]1NC(=O)[C@H]([C@@H]2O[C@@H](Sc3cc(OC)cc(OCc4ccc(F)cc4)c3)C[C@H]2C)N(C)C(=O)[C@H](C(C)C)N(C)C(=O)[C@H](CC(C)C)N(C)C(=O)[C@H](CC(C)C)N(C)C(=O)[C@@H](C)NC(=O)[C@H](C)NC(=O)[C@H](CC(C)C)N(C)C(=O)[C@H](C(C)C)NC(=O)[C@H](CC(C)C)N(C)C(=O)CN(C)C1=O`: 6.67.

On to `CC[C@@H]1NC(=O)[C@H]([C@@H]2O[C@@H](Sc3cccc(OCc4cccnc4)c3)C[C@H]2C)N(C)C(=O)[C@H](C(C)C)N(C)C(=O)[C@H](CC(C)C)N(C)C(=O)[C@H](CC(C)C)N(C)C(=O)[C@@H](C)NC(=O)[C@H](C)NC(=O)[C@H](CC(C)C)N(C)C(=O)[C@H](C(C)C)NC(=O)[C@H](CC(C)C)N(C)C(=O)CN(C)C1=O`, for which the pIC50 is 6.57.

Consider `CC[C@@H]1NC(=O)[C@H]([C@@H]2O[C@@H](Sc3ccc(C)cc3)C[C@H]2C)N(C)C(=O)[C@H](C(C)C)N(C)C(=O)[C@H](CC(C)C)N(C)C(=O)[C@H](CC(C)C)N(C)C(=O)[C@@H](C)NC(=O)[C@H](C)NC(=O)[C@H](CC(C)C)N(C)C(=O)[C@H](C(C)C)NC(=O)[C@H](CC(C)C)N(C)C(=O)CN(C)C1=O`, for which the pIC50 was 6.55. Take `CC[C@@H]1NC(=O)[C@H]([C@@H]2O[C@@H](Sc3ccc(N4CCOCC4)cc3)C[C@H]2C)N(C)C(=O)[C@H](C(C)C)N(C)C(=O)[C@H](CC(C)C)N(C)C(=O)[C@H](CC(C)C)N(C)C(=O)[C@@H](C)NC(=O)[C@H](C)NC(=O)[C@H](CC(C)C)N(C)C(=O)[C@H](C(C)C)NC(=O)[C@H](CC(C)C)N(C)C(=O)CN(C)C1=O`: the pIC50 was 5.90. In the case of `CC[C@@H]1NC(=O)[C@H]([C@@H]2O[C@@H](Sc3nccc(C(F)(F)F)n3)C[C@H]2C)N(C)C(=O)[C@H](C(C)C)N(C)C(=O)[C@H](CC(C)C)N(C)C(=O)[C@H](CC(C)C)N(C)C(=O)[C@@H](C)NC(=O)[C@H](C)NC(=O)[C@H](CC(C)C)N(C)C(=O)[C@H](C(C)C)NC(=O)[C@H](CC(C)C)N(C)C(=O)CN(C)C1=O` it was 5.30; in that of `CC[C@@H]1NC(=O)[C@H]([C@@H]2OC(OCCC(=O)O)C[C@H]2C)N(C)C(=O)[C@H](C(C)C)N(C)C(=O)[C@H](CC(C)C)N(C)C(=O)[C@H](CC(C)C)N(C)C(=O)[C@@H](C)NC(=O)[C@H](C)NC(=O)[C@H](CC(C)C)N(C)C(=O)[C@H](C(C)C)NC(=O)[C@H](CC(C)C)N(C)C(=O)CN(C)C1=O` (some centres undefined), less than 5.00; in that of `CC[C@@H]1NC(=O)[C@H]([C@@H]2O[C@@H](Sc3cccc(NC)c3)C[C@H]2C)N(C)C(=O)[C@H](C(C)C)N(C)C(=O)[C@H](CC(C)C)N(C)C(=O)[C@H](CC(C)C)N(C)C(=O)[C@@H](C)NC(=O)[C@H](C)NC(=O)[C@H](CC(C)C)N(C)C(=O)[C@H](C(C)C)NC(=O)[C@H](CC(C)C)N(C)C(=O)CN(C)C1=O`, 5.92. In the case of `CC[C@@H]1NC(=O)[C@H]([C@@H]2O[C@H](Oc3cccc(OCc4ccccc4)c3)C[C@H]2C)N(C)C(=O)[C@H](C(C)C)N(C)C(=O)[C@H](CC(C)C)N(C)C(=O)[C@H](CC(C)C)N(C)C(=O)[C@@H](C)NC(=O)[C@H](C)NC(=O)[C@H](CC(C)C)N(C)C(=O)[C@H](C(C)C)NC(=O)[C@H](CC(C)C)N(C)C(=O)CN(C)C1=O` it was 6.17; in that of `CC[C@@H]1NC(=O)[C@H]([C@@H]2O[C@@H](Sc3ccc(OCc4ccccc4)cc3)C[C@H]2C)N(C)C(=O)[C@H](C(C)C)N(C)C(=O)[C@H](CC(C)C)N(C)C(=O)[C@H](CC(C)C)N(C)C(=O)[C@@H](C)NC(=O)[C@H](C)NC(=O)[C@H](CC(C)C)N(C)C(=O)[C@H](C(C)C)NC(=O)[C@H](CC(C)C)N(C)C(=O)CN(C)C1=O`, 6.59; in that of `CC[C@@H]1NC(=O)[C@H]([C@@H]2OC(C(C)C)C[C@H]2C)N(C)C(=O)[C@H](C(C)C)N(C)C(=O)[C@H](CC(C)C)N(C)C(=O)[C@H](CC(C)C)N(C)C(=O)[C@@H](C)NC(=O)[C@H](C)NC(=O)[C@H](CC(C)C)N(C)C(=O)[C@H](C(C)C)NC(=O)[C@H](CC(C)C)N(C)C(=O)CN(C)C1=O` (some centres undefined), less than 5.00. Next, `CC[C@@H]1NC(=O)[C@H]([C@@H]2O[C@@H](Sc3cccc(OCc4ccncc4)c3)C[C@H]2C)N(C)C(=O)[C@H](C(C)C)N(C)C(=O)[C@H](CC(C)C)N(C)C(=O)[C@H](CC(C)C)N(C)C(=O)[C@@H](C)NC(=O)[C@H](C)NC(=O)[C@H](CC(C)C)N(C)C(=O)[C@H](C(C)C)NC(=O)[C@H](CC(C)C)N(C)C(=O)CN(C)C1=O`: 6.42; `CCCOc1cccc(S[C@H]2C[C@@H](C)[C@H]([C@H]3C(=O)N[C@@H](CC)C(=O)N(C)CC(=O)N(C)[C@@H](CC(C)C)C(=O)N[C@@H](C(C)C)C(=O)N(C)[C@@H](CC(C)C)C(=O)N[C@@H](C)C(=O)N[C@H](C)C(=O)N(C)[C@@H](CC(C)C)C(=O)N(C)[C@@H](CC(C)C)C(=O)N(C)[C@@H](C(C)C)C(=O)N3C)O2)c1`: 6.65.

In the case of `CC[C@@H]1NC(=O)[C@H]([C@@H]2O[C@@H](Oc3cccc(OCc4ccccc4)c3)C[C@H]2C)N(C)C(=O)[C@H](C(C)C)N(C)C(=O)[C@H](CC(C)C)N(C)C(=O)[C@H](CC(C)C)N(C)C(=O)[C@@H](C)NC(=O)[C@H](C)NC(=O)[C@H](CC(C)C)N(C)C(=O)[C@H](C(C)C)NC(=O)[C@H](CC(C)C)N(C)C(=O)CN(C)C1=O`, the pIC50 was 6.46. In the case of `CC[C@@H]1NC(=O)[C@H]([C@@H]2O[C@@H](Sc3cccc(OCc4cccc(F)c4)c3)C[C@H]2C)N(C)C(=O)[C@H](C(C)C)N(C)C(=O)[C@H](CC(C)C)N(C)C(=O)[C@H](CC(C)C)N(C)C(=O)[C@@H](C)NC(=O)[C@H](C)NC(=O)[C@H](CC(C)C)N(C)C(=O)[C@H](C(C)C)NC(=O)[C@H](CC(C)C)N(C)C(=O)CN(C)C1=O` it was 6.71; in that of `CC[C@@H]1NC(=O)[C@H]([C@@H]2O[C@@H](Sc3cccc(OCc4ccccn4)c3)C[C@H]2C)N(C)C(=O)[C@H](C(C)C)N(C)C(=O)[C@H](CC(C)C)N(C)C(=O)[C@H](CC(C)C)N(C)C(=O)[C@@H](C)NC(=O)[C@H](C)NC(=O)[C@H](CC(C)C)N(C)C(=O)[C@H](C(C)C)NC(=O)[C@H](CC(C)C)N(C)C(=O)CN(C)C1=O`, 6.50. In the case of `CC[C@@H]1NC(=O)[C@H]([C@@H]2OC(OCC(=O)OC)C[C@H]2C)N(C)C(=O)[C@H](C(C)C)N(C)C(=O)[C@H](CC(C)C)N(C)C(=O)[C@H](CC(C)C)N(C)C(=O)[C@@H](C)NC(=O)[C@H](C)NC(=O)[C@H](CC(C)C)N(C)C(=O)[C@H](C(C)C)NC(=O)[C@H](CC(C)C)N(C)C(=O)CN(C)C1=O` (some centres undefined) it was less than 5.00; in that of `CC[C@@H]1NC(=O)[C@H]([C@@H]2O[C@@H](Sc3ccc(CN4CCN(C)CC4)cc3)C[C@H]2C)N(C)C(=O)[C@H](C(C)C)N(C)C(=O)[C@H](CC(C)C)N(C)C(=O)[C@H](CC(C)C)N(C)C(=O)[C@@H](C)NC(=O)[C@H](C)NC(=O)[C@H](CC(C)C)N(C)C(=O)[C@H](C(C)C)NC(=O)[C@H](CC(C)C)N(C)C(=O)CN(C)C1=O`, 5.81; in that of `CC[C@@H]1NC(=O)[C@H]([C@@H]2O[C@H](Sc3ccc(OC)cc3)C[C@H]2C)N(C)C(=O)[C@H](C(C)C)N(C)C(=O)[C@H](CC(C)C)N(C)C(=O)[C@H](CC(C)C)N(C)C(=O)[C@@H](C)NC(=O)[C@H](C)NC(=O)[C@H](CC(C)C)N(C)C(=O)[C@H](C(C)C)NC(=O)[C@H](CC(C)C)N(C)C(=O)CN(C)C1=O`, 5.77. With `CC[C@@H]1NC(=O)[C@H]([C@@H]2O[C@@H](Sc3ccc(OC)c(OC)c3)C[C@H]2C)N(C)C(=O)[C@H](C(C)C)N(C)C(=O)[C@H](CC(C)C)N(C)C(=O)[C@H](CC(C)C)N(C)C(=O)[C@@H](C)NC(=O)[C@H](C)NC(=O)[C@H](CC(C)C)N(C)C(=O)[C@H](C(C)C)NC(=O)[C@H](CC(C)C)N(C)C(=O)CN(C)C1=O`, the pIC50 is 6.46. Regarding `CC[C@@H]1NC(=O)[C@H]([C@@H]2OC(OCCC(=O)OC)C[C@H]2C)N(C)C(=O)[C@H](C(C)C)N(C)C(=O)[C@H](CC(C)C)N(C)C(=O)[C@H](CC(C)C)N(C)C(=O)[C@@H](C)NC(=O)[C@H](C)NC(=O)[C@H](CC(C)C)N(C)C(=O)[C@H](C(C)C)NC(=O)[C@H](CC(C)C)N(C)C(=O)CN(C)C1=O` (some centres undefined), the pIC50 is 5.03. Take `CC[C@@H]1NC(=O)[C@H]([C@@H]2O[C@@H](Sc3cccc(OCC4CC4)c3)C[C@H]2C)N(C)C(=O)[C@H](C(C)C)N(C)C(=O)[C@H](CC(C)C)N(C)C(=O)[C@H](CC(C)C)N(C)C(=O)[C@@H](C)NC(=O)[C@H](C)NC(=O)[C@H](CC(C)C)N(C)C(=O)[C@H](C(C)C)NC(=O)[C@H](CC(C)C)N(C)C(=O)CN(C)C1=O`: the pIC50 was 6.44. For the compound `CC[C@@H]1NC(=O)C([C@@H]2OC(O)C[C@H]2C)N(C)C(=O)[C@H](C(C)C)N(C)C(=O)[C@H](CC(C)C)N(C)C(=O)[C@H](CC(C)C)N(C)C(=O)[C@@H](C)NC(=O)[C@H](C)NC(=O)[C@H](CC(C)C)N(C)C(=O)[C@H](C(C)C)NC(=O)[C@H](CC(C)C)N(C)C(=O)CN(C)C1=O` (some centres undefined), the pIC50 was 4.92. In the case of `CC[C@@H]1NC(=O)[C@H]([C@@H]2O[C@@H](Sc3cccc(O)c3)C[C@H]2C)N(C)C(=O)[C@H](C(C)C)N(C)C(=O)[C@H](CC(C)C)N(C)C(=O)[C@H](CC(C)C)N(C)C(=O)[C@@H](C)NC(=O)[C@H](C)NC(=O)[C@H](CC(C)C)N(C)C(=O)[C@H](C(C)C)NC(=O)[C@H](CC(C)C)N(C)C(=O)CN(C)C1=O` it was 5.78.
